Legend:
[1] = test system: participants with NT2; assay: MWT sleep onset latency, Phase 2 NT2 trial (Example 2); assay type: in vivo, human; conditions: not statistically significant (p>0.4)
Protocol: In some aspects of the methods described herein, the subject experiences a higher mean sleep latency (also referred to as sleep onset latency or SOL) from the Maintenance of Wakefulness Test (MWT) after a treatment period compared to an untreated subject. The MWT is a validated, objective measure that evaluates a person's ability to remain awake under soporific conditions for a defined period of time. Because there is no biological measure of wakefulness, wakefulness is measured indirectly by the inability or delayed tendency to fall asleep. This tendency to fall asleep is measured via electroencephalography-derived sleep latency in the MWT. One MWT, that includes four 40-minute wake trials, is done on each day specified in the Schedule of Activities of the trial. Sleep latency in each wake trial is recorded. Participants are required to stay awake in between the 4 MWT wake trials.
During each MWT wake trial, participants are instructed to sit in a bed or reclining chair and remain awake for as long as possible in a dimly lit room. Wake trials are ended after 40 minutes if no sleep occurs. If no sleep has been observed according to these rules, then the latency is defined as 40 minutes.
Randomization was stratified by region. Starting on the morning of Day 1, the study drug was administered at approximately the same time each day for 8 weeks. […]

[2] = test system: participants with NT1; assay: At-home continuous accelerometry of sleep, Phase 2 NT1 trial; assay type: in vivo, human
Text: Polysomnography (PSG) was collected at baseline and after 27 and 54 days of treatment. Sleep was manually scored following AASM guidelines; sleep metrics were extracted then computed by whole night and by quarter-night. Continuous accelerometry (Empatica EmbracePlus watch) allowed assessment of sleep in a naturalistic manner at home. Daily sleep diaries were used to capture subjective reports. Mixed effects models were fit with treatment, quarter-night, visit, and their interactions as fixed effects and random intercepts per subject. A reference PSG dataset (Vilela M, et al. J Sleep Res 2024; e14216) from CHU Montpellier (49 clinical controls and 114 patients with NT1, all drug-free) was analyzed to establish DNS characteristics of NT1.
Consistent with sleep diaries, adverse events of mild to moderate insomnia were reported by 48% of Compound A-treated participants and most resolved within 1 week. […] Conclusion: Treatment with Compound A may help normalize REM architecture and reduce disturbing dreams without changing WASO or deep sleep.

## CCS(=O)(=O)N[C@@H]1[C@H](Cc2cccc(-c3cc(F)cc(F)c3)c2F)N(C(=O)C(C)(C)O)CC1(F)F [Compound A, N-{(2S,3R)-4,4-difluoro-1-(2-hydroxy-2-methylpropanoyl)-2-[(2,3′,5′-trifluoro[1,1′-biphenyl]-3-yl)methyl]pyrrolidin-3-yl}ethanesulfonamide]
[1]; 2 mg/2 mg
  Estimated mean change from baseline to Week 8 in SOL-MWT versus placebo: -0.24 min
[1]; 2 mg/5 mg
  Estimated mean change from baseline to Week 8 in SOL-MWT versus placebo: 2.4 min
[2]; 2 mg/2 mg cohort (FIG. 7)
  Number of nocturnal awakenings, awakenings >5 min and longest sleep bout (accelerometry): small but statistically significant reductions
[2]; accelerometry, overall (FIG. 7)
  At-home nighttime TST and WASO, change from baseline: minimal changes overall
[2]; week 1 only, 2 mg/5 mg and 7 mg QD cohorts, resolving over time
  At-home TST: reduced TST was observed
